Measurements taken from patent US5856435A, “Nucleic acid-containing composition, its preparation and use” (Rhone-Poulenc Rorer SA, priority 1994, dated 1999).
≈ marks a conversion by molar mass, not a printed value. Residues, ends and D or L forms follow the SMILES beside them.

Tests used:
[1] = study of the dichroic spectra: secondary structures adopted by the cationic oligopeptides; type: physicochemical
Excerpt: The capacity of the oligopeptides to form secondary structures may be verified by circular dichroism or in NMR, as shown in the examples.
Moreover, as shown in the Table below, a study of the dichroic spectra enabled the secondary structures adopted by the cationic oligopeptides used, in solution or after complexing, to be confirmed.

[2] = solubility of the oligopeptide in water
physchem = conditions: water
[3] = Encapsulation of the nucleic acid INV-Val13 in nanoparticles of PLA50(30)-PEG(2)
Excerpt: The nanoparticles used in this example are diblock copolymers consisting of a poly(D,L-lactic acid) linked via an ester bond to a poly(ethylene glycol): PLAp(M)-PEG(N) where M and N are, respectively, the average molecular masses (in kD) of the PLA and the PEG, and p is the percentage of L-lactic acid. The 2 types of nanoparticles used are PLA50(30)-PEG(2) and PLA50(30)-PEG(5). These copolymers may be synthesized by any technique known to a person skilled in the art (see, for example, EP 520,889).
The nucleic acids were treated with phage T4 polynucleotide kinase (Biolabs) in the presence of [γ-^32 P]ATP (Amersham) in a kinase buffer. After 30 min of incubation at 37° C., the nucleic acid was separated from unreacted ATP by application to a Sephadex G25 column (Quick Spin) and centrifugation.
This Example describes the encapsulation of the nucleic acid INV-Val13 in a nanoparticle of PLA50 (30)-PEG(2) in the presence or absence of oligopeptide (LKKL)10 (SEQ ID NO:6).
The polymer used, (PLA50(30)-PEG(2)), was solubilized in 1 ml of acetone at a concentration of 10 g/l. The isotopic dilution of the nucleic acid (final concentration 10^-5 M) was added, followed by the oligopeptide (at a concentration such that R=1). The organic solution obtained was then poured dropwise into 5 ml of an aqueous solution (50 mM Tris-HCl buffer pH 7.4) with stirring. […]

[4] = system: T24/EJ cell line originating from a human bladder carcinoma; test: Transfer of nucleic acid into cells: inhibition of cell proliferation induced by the antisense nucleic acid; type: cell-based; conditions: naked, 30 μM, 72 or 96 hours of culture
Experimental: The tests of nucleic acid transfer described in this example were performed on a cell line originating from a human bladder carcinoma, designated T24/EJ, available in the ATCC. The cells were cultured in MEM-EAGLE medium ("minimum essential medium", Biological Industries) supplemented with L-glutamine ((5 mM), streptomycin (50 u/ml) and penicillin (50 u/ml) in the presence of 7% of foetal calf serum decomplemented for 30 min at 60° C.
The cells (1500/well) were inoculated into 96-well microplates, in the absence or presence of nucleic acid, encapsulated or otherwise in nanoparticles, in a total volume of 100 μl. Each point was performed in triplicate. […]
In the first place, the incorporation of tritiated thymidine, which was determined after adding 2 μCi of 3 H thymidine per well. After 6 hours of incubation in an incubator, the plates were washed with a Skatron apparatus (Lier, Norway), the DNA was collected on a filter and each disc of the filter (corresponding to each well of the plate) was placed in scintillation fluid and then counted in a counter (LKB Wallac 1211 Minibeta). […]
Next, cell proliferation was evaluated by counting the cells in a Malassez cell. For this purpose, the supernatant was removed, the cells were trypsinized (10 min at 37° C.) and culture medium was added to them before they were counted.

[5] = 50 mM phosphate buffer/0.2 M NaCl

Molecule	secondary structure (dichroic spectra) ([1]; 50 mM phosphate buffer)	secondary structure (dichroic spectra) [1, 5]	secondary structure (dichroic spectra) ([1]; Water/nucleic acid)	conformation in saline solution [1]	secondary structure (dichroic spectra) ([1]; water)	conformation in water ([1]; water)	also measured
CC(C)C[C@H](NC(=O)[C@H](CCCCN)NC(=O)[C@H](CCCCN)NC(=O)[C@@H]1CCCN1C(=O)[C@H](CC(C)C)NC(=O)[C@H](CCCCN)NC(=O)[C@H](CCCCN)NC(=O)[C@@H]1CCCN1C(=O)[C@H](CC(C)C)NC(=O)[C@H](CCCCN)NC(=O)[C@H](CCCCN)NC(=O)[C@@H]1CCCN1C(=O)[C@H](CC(C)C)NC(=O)[C@H](CCCCN)NC(=O)[C@H](CCCCN)NC(=O)[C@@H]1CCCN1C(=O)[C@H](CC(C)C)NC(=O)[C@H](CCCCN)NC(=O)[C@H](CCCCN)NC(=O)[C@@H]1CCCN1C(=O)[C@H](CC(C)C)NC(=O)[C@H](CCCCN)NC(=O)[C@H](CCCCN)NC(=O)[C@@H]1CCCN1C(=O)[C@H](CC(C)C)NC(=O)[C@H](CCCCN)NC(=O)[C@H](CCCCN)NC(=O)[C@@H]1CCCN1C(=O)[C@H](CC(C)C)NC(=O)[C@H](CCCCN)NC(=O)[C@H](CCCCN)NC(=O)[C@@H]1CCCN1C(=O)[C@H](CC(C)C)NC(=O)[C@H](CCCCN)NC(=O)[C@H](CCCCN)NC(=O)[C@@H]1CCCN1C(=O)[C@H](CC(C)C)NC(=O)[C@H](CCCCN)NC(=O)[C@H](CCCCN)NC(=O)[C@@H]1CCCN1)C(=O)O [(PKKL)10, (H)-(Proline-Lysine-Lysine-Leucine)10 -(OH), reference compound] (H-PKKLPKKLPKKLPKKLPKKLPKKLPKKLPKKLPKKLPKKL-OH)	unstructured	unstructured	unstructured	not structured	unstructured		
CC(C)C[C@H](NC(=O)[C@H](CCCCN)NC(=O)[C@H](CC(C)C)NC(=O)[C@H](CCCCN)NC(=O)[C@H](CC(C)C)NC(=O)[C@H](CCCCN)NC(=O)[C@H](CC(C)C)NC(=O)[C@H](CCCCN)NC(=O)[C@H](CC(C)C)NC(=O)[C@H](CCCCN)NC(=O)[C@H](CC(C)C)NC(=O)[C@H](CCCCN)NC(=O)[C@H](CC(C)C)NC(=O)[C@H](CCCCN)NC(=O)[C@H](CC(C)C)NC(=O)[C@H](CCCCN)NC(=O)[C@H](CC(C)C)NC(=O)[C@H](CCCCN)NC(=O)[C@H](CC(C)C)NC(=O)[C@H](CCCCN)NC(=O)[C@H](CC(C)C)NC(=O)[C@H](CCCCN)NC(=O)[C@H](CC(C)C)NC(=O)[C@H](CCCCN)NC(=O)[C@H](CC(C)C)NC(=O)[C@H](CCCCN)NC(=O)[C@H](CC(C)C)NC(=O)[C@H](CCCCN)NC(=O)[C@H](CC(C)C)NC(=O)[C@H](CCCCN)NC(=O)[C@H](CC(C)C)NC(=O)[C@H](CCCCN)NC(=O)[C@H](CC(C)C)NC(=O)[C@H](CCCCN)NC(=O)[C@H](CC(C)C)NC(=O)[C@H](CCCCN)NC(=O)[C@H](CC(C)C)NC(=O)[C@H](CCCCN)NC(=O)[C@@H](N)CC(C)C)C(=O)N[C@@H](CCCCN)C(=O)O [(LKLK)10, (H)-(Leucine-Lysine-Leucine-Lysine)10 -(OH)] (H-LKLKLKLKLKLKLKLKLKLKLKLKLKLKLKLKLKLKLKLK-OH)	β Sheet	β Sheet	β Sheet	β-sheet	unstructured	unstructured	solubility [2]: 100 mg/mL (≈ 20.6 mM)
CC(C)C[C@H](NC(=O)[C@H](CCCCN)NC(=O)[C@H](CCCCN)NC(=O)[C@H](CC(C)C)NC(=O)[C@H](CC(C)C)NC(=O)[C@H](CCCCN)NC(=O)[C@H](CCCCN)NC(=O)[C@H](CC(C)C)NC(=O)[C@H](CC(C)C)NC(=O)[C@H](CCCCN)NC(=O)[C@H](CCCCN)NC(=O)[C@H](CC(C)C)NC(=O)[C@H](CC(C)C)NC(=O)[C@H](CCCCN)NC(=O)[C@H](CCCCN)NC(=O)[C@H](CC(C)C)NC(=O)[C@H](CC(C)C)NC(=O)[C@H](CCCCN)NC(=O)[C@H](CCCCN)NC(=O)[C@H](CC(C)C)NC(=O)[C@H](CC(C)C)NC(=O)[C@H](CCCCN)NC(=O)[C@H](CCCCN)NC(=O)[C@H](CC(C)C)NC(=O)[C@H](CC(C)C)NC(=O)[C@H](CCCCN)NC(=O)[C@H](CCCCN)NC(=O)[C@H](CC(C)C)NC(=O)[C@H](CC(C)C)NC(=O)[C@H](CCCCN)NC(=O)[C@H](CCCCN)NC(=O)[C@H](CC(C)C)NC(=O)[C@H](CC(C)C)NC(=O)[C@H](CCCCN)NC(=O)[C@H](CCCCN)NC(=O)[C@H](CC(C)C)NC(=O)[C@H](CC(C)C)NC(=O)[C@H](CCCCN)NC(=O)[C@H](CCCCN)NC(=O)[C@@H](N)CC(C)C)C(=O)O [(LKKL)10, (H)-(Leucine-Lysine-Lysine-Leucine)10 -(OH)] (H-LKKLLKKLLKKLLKKLLKKLLKKLLKKLLKKLLKKLLKKL-OH)	α Helix	α Helix	α Helix	α-helical	unstructured	unstructured	solubility (physchem): 50 mg/mL (≈ 10.3 mM)
3'-CACACCGACGGCG-5' (chemistry not given here; listed 3' to 5') [INV-Val13]							encapsulation yield of INV-Val13 in the nanoparticle ([3]; in the presence of oligopeptide (LKKL)10, R=1, nucleic acid 10^-5 M): 56%; encapsulation yield of INV-Val13 in the nanoparticle ([3]; without the oligopeptide, nucleic acid 10^-5 M): 5%
3'-CGCGGCAGCCAC-5' (chemistry not given here; listed 3' to 5') [AS-Val12]							inhibition of cell proliferation [4]: 42%
Polylysine [reference compound]				not structured			
